How the values were obtained:
[1] = tested on: ARPE-19 cells under UOS; assay: Western blot of pro-survival and pro-apoptotic proteins in RPE cells under UOS; format: cell-based, human; conditions: for pro-apoptotic protein Bax / pro-apoptotic protein Bid / pro-apoptotic protein Bim: ARPE-19 cells under UOS; for SIRT1 expression: RPE under UOS; for Prohibitin (type-1) expression: concentration-dependent (100 and 250 nM); for Sirtuin1 (SIRT1) expression: dose-dependent, 100-200 nM
Procedure: ARPE19 cells at 75-80% confluence (72 h growth in DMEM/F12+10% FBS) in 6-well plates were serum-starved for 8 h before exposure. The serum-starved cells were treated with TNF-α (Sigma-Aldrich, St. Louis, Mo.) (10 ng/ml) and H2O2 (600 μM) to induce oxidative stress and challenged with increasing concentrations (50-500 nM) of VLC-PUFA (C32:6n3 and C34:6n3) simultaneously with oxidative stress for 16 h (apoptosis) and 6 h (Western-blot) before detection of apoptosis and harvesting for protein analysis. In some experiments, DHA at a concentration of 100 nM and 15-LOX-1 inhibitor PD146176 at a concentration of 1 μM was added to treat the RPE cells under stress. Cell extracts were made and protein concentrations adjusted by Bio-Rad (Hercules, Calif.) protein reagent and used for Western blot analysis.
Bcl-2 family proteins, SIRT1 and Proinhibitin (type-1), and Iduna proteins were analyze by Western blot analysis. In brief, 20-25 μg equivalents of each cell extracts were subject to electrophoresis on a 4-12% gel (Promega) at 125 V for 2 h. The proteins were transferred to nitrocellulose membrane by I-blot transfer apparatus. The membranes were subjected to treatment with primary antibodies specific for Bcl-2, Bcl-xL, Bax, Bid, Bim, SIRT1 and Prohibitin (type-1) (Santa Cruz Biotechnology) and Iduna antibody (Neuro-Mab Lab, UCLA, Los Angeles, Calif.) overnight at 4° C. and probed for 45 mins with secondary antibody, goat anti-mouse Ig:horseradish peroxidase, and horseradish peroxidase-conjugated anti-biotin antibody, and then proteins were evaluated by using an ECL kit (Amersham).

[2] = tested on: cerebral-cortical mixed neuronal cells and hippocampal neurons; assay: NMDA excitotoxicity of neurons in culture, cell viability; format: cell-based, rat; conditions: for neuroprotection against NMDA excitotoxicity (Hoechst): 500 nM, DIV 12; for neuroprotection against NMDA excitotoxicity (Hoechst) / synergy with NPD1 in neuroprotection against NMDA excitotoxicity: NMDA 100 μM; for neuroprotection against NMDA excitotoxicity (Hoechst) / synergy with NPD1 in neuroprotection against NMDA excitotoxicity / NMDA-induced neuronal death: 12 h; for synergy with NPD1 in neuroprotection against NMDA excitotoxicity: ELV 200 nM with NPD1 100 nM; for NMDA-induced neuronal death: ELV (Na or Me) 200 nM or 500 nM added along with NMDA 25, 50 or 100 μM; for neuroprotection with MK801 and NPD1 added together: compared with ELV-N32-Na or ELV-N32-Me alone
Description: (§1) Primary cultures of cortical and hippocampal neurons were harvested from 18-day-old embryos (E18) taken from timed-pregnant, two-month-old Sprague-Dawley (SD) rats (Charles River Lab., Wilmington, Mass.). Briefly, timed-pregnant SD rats were euthanized and embryos were collected in sterile conditions. Embryonic brains were dissected out by forceps on ice and placed in a petri dish containing ice-cold Hank's Balanced Salt Solution (HBSS) (GIBCO). Meninges were removed under a dissecting microscope and cortical tissues were chopped into small pieces with micro-spring scissors. These tissues were transferred to 15 ml tubes containing trypsin-EDTA (0.025% in HBSS) and DNase I. The tubes were incubated in 37° C. chamber for 15 mins and were agitated every 5 mins. After stopping the trypsinization with 5 ml 10% FBS, these tissues were triturated 15 times with a fire polished Pasteur pipet. Cell clumps were left to settle for 2 mins and the supernatant was transferred to a 15 ml Eppendorf tube. The supernatant was filtered through a 70 μm pore-sized filter (Corning cell strainer) and centrifuged for 5 mins at 1000 rpm. The cells were then resuspended in Neurobasal medium (GIBCO) containing 2% B27 (GIBCO) and 2% N2 (GIBCO) supplements, along with 0.5 mM glutamine, 50 U/ml penicillin/streptomycin.
Cells were counted using a Neubauer hemocytometer. 1×10^6 cells were seeded on poly-D-lysine-coated 12 well cell culture dish (CORNING) and cultured in incubator (37° C., 5% CO2). Culture medium was first replaced after 24 h, then half of the medium was replaced with fresh medium every three days. As a result, approximately, 90% purity of neurons was obtained as determined by class-III-β tubulin, GFAP and Hoechst 33258 staining. Cells were maintained in culture for about 2 weeks until they were exposed to uncompensated oxidative stress, OGD, or NMDA excitotoxicity.
After 90 mins of OGD exposure, cells were returned to the original medium (Neurobasal medium (GIBCO) containing 2% B27 (GIBCO) and 2% N2 (GIBCO) supplements, along with 0.5 mM glutamine, 50 U/ml penicillin/streptomycin) and placed in a normoxic chamber (37° C., 5% CO2) for 2 h. Then the medium was changed with medium containing either ELV-N32 or ELV-N34 [500 nM] and maintained in a normoxic chamber (37° C., 5% CO2) for 12 h, after which cells were sampled and assayed for cell viability using different methods as previously described (25-28). Cerebral cortical mixed neuronal cells or hippocampal cells in culture were exposed to either NMDA or uncompensated oxidative stress (UOS) for 12 h by addition of either NMDA (25 μM, 50 μM, or 100 μM) concentration or by the addition of TNFα (10 ng/mL) and H2O2 (50 μM, 100 μM, or 200 μM). Cell viability and neuroprotection in the presence of ELV-N32, ELV-N34, 32:6, or 34:6 were assayed after 12 h.
Cells were washed with 1× Dulbecco's Phosphate Buffered Saline (DPBS) containing no calcium or magnesium (GIBCO) and fixed for 10 mins using ice-cold 4% paraformaldehyde (PFA) followed by 15 mins incubation in 100% methanol. Cells were washed with 1× Phosphate Buffered Saline (PBS) pH 7.4 (GIBCO) and incubated in PBS containing 20 μM Hoechst 33258 (Molecular Probes) for 20 mins. Cells were then washed 3 times with 1×PBS and stored in 1×PBS at 4° C. until they were imaged for microscopy.
One 4×4 tile mosaic was acquired from the center of each well using a Zeiss 510 Meta laser confocal microscope and LSM 510 Meta software. Images were imported into image analysis software ImageJ (National Institutes of Health, Bethesda, Md.) and batch processed using custom macros. An Otsu auto threshold was applied to each image of Hoechst-stained nuclei, and the area of each detected object was recorded. Objects with areas <10 μm^2 were excluded from analysis. To estimate percentage non-pyknotic nuclei, a size cutoff value was chosen above which objects were assumed to be non-pyknotic. […]

[3] = tested on: cerebral-cortical mixed neuronal cells; assay: Uncompensated oxidative stress (TNFα plus H2O2) of neurons in culture; format: cell-based, rat; conditions: 200 nM; TNFα 10 ng/mL and H2O2 (50, 100 or 200 μM), 12 h
Description: as §1
Cells were counted using a Neubauer hemocytometer. 1×10^6 cells were seeded on poly-D-lysine-coated 12 well cell culture dish (CORNING) and cultured in incubator (37° C., 5% CO2). Culture medium was first replaced after 24 h, then half of the medium was replaced with fresh medium every three days. As a result, approximately, 90% purity of neurons was obtained as determined by class-III-β tubulin, GFAP and Hoechst 33258 staining. […]
One 4×4 tile mosaic was acquired from the center of each well using a Zeiss 510 Meta laser confocal microscope and LSM 510 Meta software. […] An Otsu auto threshold was applied to each image of Hoechst-stained nuclei, and the area of each detected object was recorded. […]

SMILES | anti-apoptotic protein Bcl-2 ([1]; RPE cells under UOS) | anti-apoptotic protein Bcl-xL ([1]; RPE cells under UOS) | pro-apoptotic protein Bax ([1]; VLC-PUFA) | pro-apoptotic protein Bid ([1]; VLC-PUFA) | pro-apoptotic protein Bim ([1]; VLC-PUFA) | Iduna expression ([1]; VLC-PUFA, RPE cells under UOS) | SIRT1 expression ([1]; VLC-PUFA) | Prohibitin (type-1) expression ([1]; VLC-PUFA) | Iduna expression ([1]; 200 nM) | Sirtuin1 (SIRT1) expression [1] | neuroprotection against NMDA excitotoxicity (Hoechst) [2] | synergy with NPD1 in neuroprotection against NMDA excitotoxicity [2] | NMDA-induced neuronal death [2] | neuroprotection with MK801 and NPD1 added together [2] | neuroprotection against uncompensated oxidative stress [3] | other results
CC/C=C\C/C=C\C/C=C\C/C=C\C/C=C\C/C=C\CCCCCCCCCCCCCCC(=O)O [34:6n3, (16Z,19Z,22Z,25Z,28Z,31Z)-tetratriaconta-16,19,22,25,28,31-hexaenoic acid] | upregulate | upregulate | down regulated | down regulated | down regulated | upregulation | upregulation | upregulation | – | – | – | – | – | – | – | NMDA receptor-mediated excitotoxicity ([2]; precursor at 500 nM): attenuates NMDA receptor-mediated excitotoxicity
CC/C=C\C[C@H](O)\C=C/C=C/C=C/[C@H](O)C/C=C\C/C=C\CCCCCCCCCCCCC(=O)[O-].[Na+] [ELV-N32-Na, sodium (14Z,17Z,20R,21E,23E,25Z,27S,29Z)-20,27-dihydroxydotriaconta-14,17,21,23,25,29-hexaenoate] | enhanced the abundance | enhanced the abundance | – | – | – | – | – | – | enhanced Iduna expression | upregulate | neuroprotection elicited | showed synergy | compensated for | improved the neuroprotection | evoked neuroprotection | relative potency in upregulating SIRT1 ([1]; ELV-N32-Na versus ELV-N34-Na): more potent than ELV-N34-Na
CC/C=C\C/C=C\C/C=C\C/C=C\C/C=C\C/C=C\CCCCCCCCCCCCC(=O)O [32:6n3, (14Z,17Z,20Z,23Z,26Z,29Z)-dotriaconta-14,17,20,23,26,29-hexaenoic acid] | upregulate | upregulate | down regulated | down regulated | down regulated | upregulation | upregulation | upregulation | – | – | – | – | – | – | – | NMDA excitotoxicity ([2]; precursor at 250 nM): attenuate NMDA excitotoxicity
CC/C=C\C[C@H](O)\C=C/C=C/C=C/[C@H](O)C/C=C\C/C=C\CCCCCCCCCCCCCCC(=O)[O-].[Na+] [ELV-N34-Na, sodium (16Z,19Z,22R,23E,25E,27Z,29S,31Z)-22,29-dihydroxytetratriaconta-16,19,23,25,27,31-hexaenoate] | enhanced the abundance | enhanced the abundance | – | – | – | – | – | – | enhanced Iduna expression | upregulate | – | – | – | – | neuroprotection elicited | –
CC/C=C\C[C@H](O)\C=C/C=C/C=C/[C@H](O)C/C=C\C/C=C\CCCCCCCCCCCCCCC(=O)OC [ELV-N34-Me, methyl (16Z,19Z,22R,23E,25E,27Z,29S,31Z)-22,29-dihydroxytetratriaconta-16,19,23,25,27,31-hexaenoate] | – | – | – | – | – | – | – | – | – | – | neuroprotection elicited | – | – | – | – | –
CC/C=C\C[C@H](O)\C=C/C=C/C=C/[C@H](O)C/C=C\C/C=C\CCCCCCCCCCCCC(=O)OC [ELV-N32-Me, methyl (14Z,17Z,20R,21E,23E,25Z,27S,29Z)-20,27-dihydroxydotriaconta-14,17,21,23,25,29-hexaenoate] | – | – | – | – | – | – | – | – | – | – | – | showed synergy | compensated for | improved the neuroprotection | evoked neuroprotection | relative potency of the combination with NPD1 ([2]; ELV-N32-Me plus NPD1 versus ELV-N32-Na plus NPD1): more potent

From patent US11684599B2, “Very-long-chain polyunsaturated fatty acids, elovanoid hydroxylated derivatives, and methods of use” (Board of Supervisors of Louisiana State University and …, priority 2017, dated 2023)
